Measurements: publication PMC5439667, “Thermal stability and kinetic constants for 129 variants of a family 1 glycoside hydrolase reveal that enzyme activity and stability can be separately designed” (PLoS ONE, 2017)

Biological target: BglB (Paenibacillus polymyxa, UniProt P22505)
Assay: Michaelis-Menten kinetics of […]-nitrophenol release (as in the previous study)
Format: biochemical
Settings: wild type, batched replicates re-measured here; conditions of the kinetic assay not printed in the main text

BglB, sequence (P22505 whole entry): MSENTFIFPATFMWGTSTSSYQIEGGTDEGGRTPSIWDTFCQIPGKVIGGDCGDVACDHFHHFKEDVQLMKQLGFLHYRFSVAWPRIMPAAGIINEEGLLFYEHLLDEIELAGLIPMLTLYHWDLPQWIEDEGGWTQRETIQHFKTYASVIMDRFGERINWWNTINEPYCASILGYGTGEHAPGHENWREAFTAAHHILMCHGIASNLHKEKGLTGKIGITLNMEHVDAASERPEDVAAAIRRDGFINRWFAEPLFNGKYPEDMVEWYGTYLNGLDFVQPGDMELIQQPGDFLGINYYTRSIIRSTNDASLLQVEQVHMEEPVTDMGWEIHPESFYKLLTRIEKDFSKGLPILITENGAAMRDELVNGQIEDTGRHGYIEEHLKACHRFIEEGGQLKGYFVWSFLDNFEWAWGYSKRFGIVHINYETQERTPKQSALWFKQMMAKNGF

Structure (SMILES): O=[N+]([O-])c1ccc(O[C@@H]2O[C@H](CO)[C@@H](O)[C@H](O)[C@H]2O)cc1 [pNPG]
- KM: batched replicates of the native BglB sequence
